Data reported in US20060052435A1, “Selective dopamin d3 receptor agonists for the treatment of sexual dysfunction” (priority 2001, published 2006).

Assays:
telemetry rats = experiment: rat telemetry model of erection (intracavernosal pressure); type: in vivo
Protocol: Erectile responses were recorded by measuring intracavernosal pressure and/or clitoral/vaginal blood flow using surgically implanted telemetric device. The specific details of the surgical procedures, data acquisition and analysis can be found in detail in Bernabe J, Rampin O, Sachs B D, Giuliano F. Intracavernous pressure during erection in rats: an integrative approach based on telemetric recording. Am. J. Physiol.

[1] = emesis in the chloralose anaesthetised dog; details: male, beagle, dog, in vivo, 3000 μg kg^−1
Protocol: (§1) Male beagles, 11-17 kg were used. Following an overnight fast, animals were anaesthetised with chloralose (80 mg kg^−1 i.v.), having first been injected with an anaesthetic dose of the short acting barbiturate, thiopentone (15 mg kg^−1 i.v.). Following tracheal intubation, which ensured a patent airway even during the expulsion phase of the emetic response, the left femoral vein and artery were cannulated for further administration of anaesthetic and for recording haemodynamic parameters, respectively. […] During the stabilisation period, respiratory rate was monitored to ensure that central respiratory centres were not deeply depressed, since the CNS efferent component of the emetic reflex is essentially conveyed via respiratory motor neurones. […] Animals were observed closely for 30 min post-dose and motor (e.g. swallowing, eye blinking, limb movements, changes in respiratory rate and depth, retching and vomiting) and haemodynamic changes noted and recorded. […] At the end of an experiment animals were sacrificed with an overdose of pentobarbitone.
(§2) Observations made on individual animals were used to determine the percentage of animals that retched when injected with a particular dose level of test compound. Percentage of animals retching was then used to construct a dose response curve and an ED50 value determined from the appropriate curve.

anaesthetised dog [2] = experiment: emesis in the chloralose anaesthetised dog
Protocol: as §1, §2

anaesthetised dog [3] = experiment: haemodynamics in the anaesthetised dog; type: in vivo; details: for effect on mean blood pressure / effect on total vascular resistance (TVR; TPR) / effect on cardiac output and heart rate: s.c., hydrochloride; for effect on mean blood pressure / effect on total vascular resistance (TVR; TPR): doses up to 3000 μg/kg
Source text: Male beagles were anaesthetised with a mixture of chloralose and urethane, following pre-medication with piritramide. They were instrumented to measure arterial blood pressure, cardiac output, E.C.G., pudendal artery blood flow (PAF) and intra-cavernosal pressure (ICP). Other parameters such as heart rate and vascular resistance were derived from the primary signals. Following a period of equilibration, a series of control readings were taken and the effects of pelvic nerve stimulation at 4 and 8 Hz, on ICP and PAF were measured. Compounds were administered subcutaneously in the dorsal neck region via an implanted catheter, in the dose range of 0.3-3000 μg(base)/kg. Following each dose, parameters were measured at fixed intervals for 30 min.
Results were analysed as percent change from the final control values for each dog and mean values for three dogs were used.

conscious rats = experiment: conscious rat models of copulatory behaviour; details: in vivo
Protocol: All studies of sexual behaviour must be performed on adult rats (˜12 weeks of age/200 g weight). Sexual behaviour tests are performed under red light during the dark phase of the light/dark cycle starting at 2 h after lights off and videotaped for further analysis (observer presence can unfavourably alter sexual behaviour).
Males (N=8-10) are placed in a clear aquarium (or home cage) for at least 15 min acclimation period. An estrous female is introduced into the mating arena. The following information is recorded during the 45 min test: latency to begin mounting behaviour, latency to first intromission, latency to first ejaculation (calculated from first intromission), number of intromissions to ejaculation, number of mounts until ejaculation, and the number of ejaculations during the test period. Males are observed during a single 45 min test with an estrous WT female.
The rats are presented with a receptive female at […], i.e. every third day (having 2 clear days between presentations), until completing at least 6 days of baseline determination. By then, vigorous behaviour should be expected. Rats that display sluggish copulatory behaviour are used as a model of HSDD.
For all the sexual behaviour tests, the males are placed in an observation arena (50-60 cm diameter for rats). 3 to 4 minutes after placing the male in the arena, a receptive female (ovariectomised, bearing a 7 mm silastic implant of oestradiol benzoate gives the best results without complications) is introduced to the arena and the following parameters noted:
Mount Latency: time (in seconds) taken between introduction of female and first mount. A maximum time of 15 minutes (900 seconds) is allowed, and the test terminated if no mounts are recorded within that time. Mount latency is related to sexual drive/desire.
Intromission Latency: time (in seconds) taken between introduction of female and first intromission. A maximum time of 15 minutes (900 seconds) is allowed, and the test terminated if no intromissions are recorded within that time. Intromission latency is related to sexual drive/desire.
Copulatory effectsiveness:—no of intromissions/(no of mounts+intromissions). This acts as a measure of erectile function.
The test, in the rat, is carried out in a circular arena of 90 cm diameter surrounded by a 30 cm high wall (these dimensions would need to be adapted for mice). Two small cages with wire-mesh front (15×15 cm) are fixed into the wall such that the front of the cage is “flush” with the wall and the 2 cages are opposite each other. […] The difference in the percentage of time spent investigating male minus female is calculated, out of the total time spent investigating stimuli animals. […] Female rats would then be used intact and tested in late proestrous, as determined by vaginal smears. […]

[4] = molecular target: human dopamine D2 long receptor (Homo sapiens, UniProt P14416)
[5] = at 3000 μg/kg, haemodynamic study

human dopamine D2 long receptor, sequence (P14416 whole entry): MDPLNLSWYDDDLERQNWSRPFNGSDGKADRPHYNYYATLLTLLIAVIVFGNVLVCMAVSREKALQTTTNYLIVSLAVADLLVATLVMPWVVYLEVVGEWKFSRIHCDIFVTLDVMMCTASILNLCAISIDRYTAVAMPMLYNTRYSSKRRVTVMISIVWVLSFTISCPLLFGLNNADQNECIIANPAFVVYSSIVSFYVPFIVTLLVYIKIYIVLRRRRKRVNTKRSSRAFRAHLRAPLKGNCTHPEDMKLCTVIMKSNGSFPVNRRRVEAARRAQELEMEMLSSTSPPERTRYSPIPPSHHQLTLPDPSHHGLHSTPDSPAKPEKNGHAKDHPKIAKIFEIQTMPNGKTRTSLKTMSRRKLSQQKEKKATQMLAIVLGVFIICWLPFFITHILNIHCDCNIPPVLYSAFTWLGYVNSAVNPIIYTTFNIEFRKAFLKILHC

**Q.** Which “erections/10 minutes in the telemetry rat” value (telemetry rats; 10 μg/kg s.c.) does the source give for `CCCN1CCO[C@H](c2cccc(O)c2)C1.Cl` [Example 8, R-(−)-3-(4-Propylmorpholin-2-yl)phenol hydrochloride] here?
**A.** 2.25±0.25 erections/10 minutes

**Q.** And the “free plasma concentration at which prosexual effects were observed” value (telemetry rats; rat telemetry model, FIG. 1)?
**A.** circa 1 nM

**Q.** And the concentration at 15 min [1]?
**A.** ~1000 nM

**Q.** What about the “free plasma concentration relative to the D3 EC50” value (anaesthetised dog [2]; at 3000 μg/kg, emesis study) of the same compound?
**A.** approximately 270 fold

**Q.** And the “dose at which emesis was observed” value (anaesthetised dog [2]; s.c., escalating doses 3-3000 μg kg^−1)?
**A.** > 3 mg/kg

**Q.** What about the “free plasma concentration of the corresponding samples” value (anaesthetised dog [3]; [5]) of the same compound?
**A.** 2700 nM

**Q.** What about the “free plasma concentration relative to the D3 EC50” value (anaesthetised dog [3]; [5]) of the same compound?
**A.** approximately 270 fold

**Q.** What about the “Geometric mean ED30 (fall in TPR)” value (anaesthetised dog [3]; dog, in vivo) of the same compound?
**A.** No effect

**Q.** And the “effect on mean blood pressure” value (anaesthetised dog [3])?
**A.** No significant effect

**Q.** And the “effect on total vascular resistance (TVR; TPR)” value (anaesthetised dog [3])?
**A.** No significant effect

**Q.** And the “effect on mean blood pressure” value (anaesthetised dog [3]; listed as selective D3 agonist)?
**A.** no significant effects

**Q.** And the “effect on total vascular resistance (TVR; TPR)” value (anaesthetised dog [3]; listed as selective D3 agonist)?
**A.** no significant effects

**Q.** And the “effect on cardiac output and heart rate” value (anaesthetised dog [3])?
**A.** no significant effect

**Q.** And the “effect on cardiac output and heart rate” value (anaesthetised dog [3]; listed as selective D3 agonist)?
**A.** no significant effects

**Q.** And the “copulatory behaviour and copulatory effectiveness in male rats” value (conscious rats)?
**A.** beneficially enhances

**Q.** What about the “mount latency and intromission latency in sluggish males (model of HSDD)” value (conscious rats) of the same compound?
**A.** reduces

**Q.** What about the “proceptive and receptive behaviours in female rats” value (conscious rats) of the same compound?
**A.** beneficially enhances

**Q.** And the “sexual desire in oestrogen primed ovarectomised animals (model of HSDD)” value (conscious rats)?
**A.** restores

**Q.** What about the EC50 [4] of the same compound?
**A.** 4.97 µM
